# In US6350839B2, “Hydrolysis-stable and polymerizable acrylophosphonic acid monoesters” (Ivoclar Vivadent AG, priority 2000, dated 2002):
# Read-outs that look alike come from different tables or passages of the source.
# Columns and labels:
# Type in all cases: physicochemical
# [1] = pH value (acid strength) of a 20% monomer solution; details: text: 1:1 mixture of ethanol and water
# Procedure: (§1) The solubility of monomer 1 in water and ethanol was determined and the pH value of a 20% solution of the monomer in a 1:1 mixture of ethanol and water measured.
# [2] = Solubility of monomer in water and ethanol
# Procedure: as §1
# [3] = Hydrolytic stability by weekly 1H-NMR of stored solution; details: 20% solution in 1:1 water/ethanol, stored at 37° C., 8-week investigation period
# Procedure: Monomer 1 is dissolved in a 1:1 mixture of water and ethanol and a 20% solution is stored at 37° C. The ^1H-NMR spectrum of the solution is recorded weekly.
# [4] = water, read-out: water solubility
Compound,pH value of a 20% solution [1],solubility in ethanol ([2]; ethanol),"solubility [2, 4] [mg/mL]","solubility ([2]; ethanol, organic solvent or mixture, read-out: solubility in ethanol) [mg/mL]",hydrolytic stability (change in 1H-NMR spectrum) [3]
"C=C(COCCP(=O)(O)O)C(=O)O [Comparison monomer, 2-[4-dihydroxyphosphoryl-2-oxa-butyl]-acrylic acid, reference compound]",1.25,practically insoluble,~400,,
"C=C(COCCP(=O)(O)OC)C(=O)O [Monomer 1, 2-[4-hydroxymethoxyphosphoryl-2-oxa-butyl]-acrylic acid]",0.61,,> 500,> 500,no change in the spectrum
